Values quoted from earlier work in paper PMC6318274, “Lattice engineering enables definition of molecular features allowing for potent small-molecule inhibition of HIV-1 entry” (Nature Communications, 2019).
Where two headings read alike, the source gives them in different places.

System: HIV-1 Env-pseudoviruses (208-strain panel)
Details: cited from earlier work

## COc1cnc(-n2cnc(C)n2)c2[nH]cc(C(=O)C(=O)N3CCN(C(=O)c4ccccc4)CC3)c12 [BMS-626529]
45_01dG5, clade B, read-out: IC50
  IC50: 0.4 nM
0077.v1.c16, clade C, read-out: IC50
  IC50: 2 nM
89.6.DG, clade B, read-out: IC50
  IC50: 2 nM
96ZM651.02, clade C, read-out: IC50
  IC50: 4 nM
208-strain panel, read-out: Geometric mean IC50
  IC50: 15.9 nM
208-strain panel, read-out: Median IC50
  IC50: 9 nM
235-47, clade AG, read-out: IC50
  IC50: 1 nM
242-14, clade AG, read-out: IC50
  IC50: 23 nM
246-F3.C10.2, clade AC, read-out: IC50
  IC50: 200 nM
247-23, clade D, read-out: IC50
  IC50: 11 nM
0260.v5.c36, clade A, read-out: IC50
  IC50: 29 nM
263-8, clade AG, read-out: IC50
  IC50: 2 nM
269-12, clade AG, read-out: IC50
  IC50: 15100 nM
271-11, clade AG, read-out: IC50
  IC50: > 20000 nM
286.36, clade C, read-out: IC50
  IC50: 1 nM
288.38, clade C, read-out: IC50
  IC50: 3 nM
0330.v4.c3, clade A, read-out: IC50
  IC50: 98 nM
398-F1.F6.20, clade A, read-out: IC50
  IC50: 372 nM
426c, clade C, read-out: IC50
  IC50: 30 nM
0439.v5.c1, clade A, read-out: IC50
  IC50: 9 nM
0815.v3.c3, clade ACD, read-out: IC50
  IC50: 2 nM
00836-2.5, clade C, read-out: IC50
  IC50: > 20000 nM
0921.v2.c14, clade C, read-out: IC50
  IC50: 0.9 nM
928-28, clade AG, read-out: IC50
  IC50: 2080 nM
001428-2.42, clade C, read-out: IC50
  IC50: 49 nM
3016.v5.c45, clade D, read-out: IC50
  IC50: 0.5 nM
3168.v4.c10, clade C, read-out: IC50
  IC50: 1 nM
3301.v1.c24, clade AC, read-out: IC50
  IC50: 15 nM
3326.v4.c3, clade CD, read-out: IC50
  IC50: 0.3 nM
3337.v2.c6, clade CD, read-out: IC50
  IC50: 1 nM
3365.v2.c20, clade A, read-out: IC50
  IC50: 1920 nM
3415.v1.c1, clade A, read-out: IC50
  IC50: 5 nM
3468.v1.c12, clade AD, read-out: IC50
  IC50: 7 nM
3589.v1.c4, clade AC, read-out: IC50
  IC50: 1 nM
3637.v5.c3, clade C, read-out: IC50
  IC50: 1 nM
3718.v3.c11, clade A, read-out: IC50
  IC50: 10 nM
3817.v2.c59, clade CD, read-out: IC50
  IC50: 48 nM
3873.v1.c24, clade C, read-out: IC50
  IC50: 0.6 nM
3988.25, clade B, read-out: IC50
  IC50: 1 nM
5768.04, clade B, read-out: IC50
  IC50: 3 nM
6095.v1.c10, clade ACD, read-out: IC50
  IC50: 1 nM
6101.10, clade B, read-out: IC50
  IC50: 1 nM
6322.v4.c1, clade C, read-out: IC50
  IC50: 91 nM
6405.v4.c34, clade D, read-out: IC50
  IC50: 2470 nM
6471.v1.c16, clade C, read-out: IC50
  IC50: 2 nM
6535.3, clade B, read-out: IC50
  IC50: 0.3 nM
6540.v4.c1, clade AC, read-out: IC50
  IC50: 41 nM
6545.v4.c1, clade AC, read-out: IC50
  IC50: 32 nM
6631.v3.c10, clade C, read-out: IC50
  IC50: 3 nM
6644.v2.c33, clade C, read-out: IC50
  IC50: 71 nM
6785.v5.c14, clade C, read-out: IC50
  IC50: 292 nM
6838.v1.c35, clade C, read-out: IC50
  IC50: 19 nM
7165.18, clade B, read-out: IC50
  IC50: 29 nM
0013095-2.11, clade C, read-out: IC50
  IC50: 5 nM
16055-2.3, clade C, read-out: IC50
  IC50: 3 nM
16845-2.22, clade C, read-out: IC50
  IC50: 1 nM
16936-2.21, clade C, read-out: IC50
  IC50: 6 nM
25710-2.43, clade C, read-out: IC50
  IC50: 2 nM
25711-2.4, clade C, read-out: IC50
  IC50: 13 nM
25925-2.22, clade C, read-out: IC50
  IC50: 2 nM
26191-2.48, clade C, read-out: IC50
  IC50: 2 nM
57128.vrc15, clade D, read-out: IC50
  IC50: 6 nM
191821.E6.1, clade D, read-out: IC50
  IC50: 0.8 nM
231965.c01, clade D, read-out: IC50
  IC50: 1 nM
620345.c1, clade AE, read-out: IC50
  IC50: 4130 nM
A07412M1.vrc12, clade D, read-out: IC50
  IC50: 8 nM
AC10.29, clade B, read-out: IC50
  IC50: 3 nM
ADA.DG, clade B, read-out: IC50
  IC50: 3 nM
BB201.B42, clade A, read-out: IC50
  IC50: 242 nM
BB539.2B13, clade A, read-out: IC50
  IC50: 7 nM
BG1168.01, clade B, read-out: IC50
  IC50: 13 nM
BI369.9A, clade A, read-out: IC50
  IC50: 6 nM
BJOX002000.03.2, clade BC, read-out: IC50
  IC50: 5 nM
BJOX009000.02.4, clade AE, read-out: IC50
  IC50: 5130 nM
BJOX010000.06.2, clade AE, read-out: IC50
  IC50: > 20000 nM
BJOX025000.01.1, clade AE, read-out: IC50
  IC50: > 20000 nM
BJOX028000.10.3, clade AE, read-out: IC50
  IC50: > 20000 nM
BL01.DG, clade B, read-out: IC50
  IC50: > 20000 nM
BR07.DG, clade B, read-out: IC50
  IC50: 786 nM
BR025.9, clade C, read-out: IC50
  IC50: > 20000 nM
BS208.B1, clade A, read-out: IC50
  IC50: 17 nM
BX08.16, clade B, read-out: IC50
  IC50: 2 nM
BaL.26, clade B, read-out: IC50
  IC50: 0.8 nM
Bal.01, clade B, read-out: IC50
  IC50: 1 nM
C1080.c3, clade AE, read-out: IC50
  IC50: > 20000 nM
C2101.c1, clade AE, read-out: IC50
  IC50: > 20000 nM
C3347.c11, clade AE, read-out: IC50
  IC50: 18100 nM
C4118.09, clade AE, read-out: IC50
  IC50: 4040 nM
CAAN.A2, clade B, read-out: IC50
  IC50: 1 nM
CAP45.G3, clade C, read-out: IC50
  IC50: 32 nM
CAP210.E8, clade C, read-out: IC50
  IC50: 77 nM
CAP244.D3, clade C, read-out: IC50
  IC50: 7 nM
CE703010217.B6, clade C, read-out: IC50
  IC50: 2 nM
CH038.12, clade BC, read-out: IC50
  IC50: 329 nM
CH070.1, clade BC, read-out: IC50
  IC50: 23 nM
CH117.4, clade BC, read-out: IC50
  IC50: 26 nM
CH119.10, clade BC, read-out: IC50
  IC50: 4 nM
CH181.12, clade BC, read-out: IC50
  IC50: 1 nM
CM244.ec1, clade AE, read-out: IC50
  IC50: > 20000 nM
CNE3, clade AE, read-out: IC50
  IC50: 8520 nM
CNE4, clade B, read-out: IC50
  IC50: > 20000 nM
CNE5, clade AE, read-out: IC50
  IC50: 12700 nM
CNE7, clade BC, read-out: IC50
  IC50: 13 nM
CNE8, clade AE, read-out: IC50
  IC50: > 20000 nM
CNE10, clade B, read-out: IC50
  IC50: 0.5 nM
CNE12, clade B, read-out: IC50
  IC50: 1 nM
CNE14, clade B, read-out: IC50
  IC50: 230 nM
CNE15, clade BC, read-out: IC50
  IC50: 0.9 nM
CNE19, clade BC, read-out: IC50
  IC50: 2 nM
